In publication PMC10786692 (The Journal of Clinical Investigation, 2024):

Legend:
phospho-(S635)Rad50 = test: Paired tumor biopsy p-Rad50 IHC; format: in vivo, human; conditions: four paired biopsies, after 2-week dosing
Method: PD sampling took place at baseline (within 7 days prior to dosing) and between days 15 and 22 of dosing (day 14 for intermittent dosing cohorts). PD samples included PBMCs and tumor biopsies. PBMCs were analyzed by immunofluorescence for γ^(S139)H2AX, p-^(S345)Chk1, and total Chk1, as described in Supplemental Methods. Paired tumor biopsies were formalin fixed and analyzed for nuclear p-^(S635)Rad50 and γH2AX by IHC. […]
signatures for heatmap construction were used from MSigDB (49) and cell-type-related transcripts from NanoString annotations and Bindea et al (50). Cell-type deconvolution was performed using CIBERSORTx (51).
Supplementary Pharmacodynamic methods
Formalin fixed paraffin-embedded tumor samples were used. […] H-score was calculated using HALO image analysis (Indica Labs). […] Nuclear ATM (Abcam 32420) IHC staining was carried out on the Ventana autostainer, using DAB detection and assessed by H-score, but samples were only deemed acceptable if lymphocyte staining (internal control) was at least 2+ (moderate) intensity. Cyclin E1 (Invitrogen HE12) staining was carried out on the Ventana autostainer, using DAB detection and the H-score was quantified using HALO image analysis (Indica Labs). Ki67 (Mib-1, Dako M7240) was scored by percent nuclear positivity using a global unweighted method, scoring 4 areas of 100 cells. […]

tumor biopsies = test: RNA-Seq differential gene expression / GSEA of paired tumor biopsies; format: in vivo, human; conditions: after 2 weeks of ceralasertib
Method: Eight paired tumor biopsies were analyzed from 3 patients with PR, 4 with SD, and 1 NE, treated at various dose levels. Additional baseline samples were also available for 1 PR and 1 SD. When all samples were considered together, there were few differences in differential gene expression between baseline and on-treatment biopsies (Figure 5A). However, when responders (PR) were compared with nonresponders (SD), there were marked differences in both baseline and on-treatment gene expression (Figure 5, B–E) with clustering of a number of differentially expressed genes according to response (Supplemental Figure 8). […]
Formalin fixed paraffin-embedded tumor samples were used. […] H-score was calculated using HALO image analysis (Indica Labs). […] Nuclear ATM (Abcam 32420) IHC staining was carried out on the Ventana autostainer, using DAB detection and assessed by H-score, but samples were only deemed acceptable if lymphocyte staining (internal control) was at least 2+ (moderate) intensity. Cyclin E1 (Invitrogen HE12) staining was carried out on the Ventana autostainer, using DAB detection and the H-score was quantified using HALO image analysis (Indica Labs). Ki67 (Mib-1, Dako M7240) was scored by percent nuclear positivity using a global unweighted method, scoring 4 areas of 100 cells. […] Quantification of tumor-infiltrating lymphocytes was done using a semi-automated method in QuPath (53). […]

ATR = conditions: preclinical; cited from earlier work
[1] = Dose-limiting toxicity, MTD and RP2D determination; format: in vivo; conditions: for Number of DLT: 3 evaluable; for Patients with DLT / number of DLT: 6 evaluable
Method: For part A (dose escalation; Figure 1, A and B), the starting dose of 20 mg was selected based on animal toxicity studies. Dosing was continuous, and escalation used a modified Fibonacci method. Initial dose escalation was planned in single patient cohorts, changing to 3+3 design after the first grade-2 toxicity was seen. […] DLT definitions are in the Supplemental Methods.
For part B, all patients received the RP2D as defined for part A. Part B allowed for different schedules (continuous/intermittent) to be assessed. Initially, a continuous dosing schedule was used for the first 6 patients. […] Pretreatment biopsy was mandatory in part B. DNA-Seq of archival tumor material or review of external tumor sequencing was used to enrich for patients with putative genomic markers of sensitivity to ATRi, based on preclinical data, including oncogene amplification or driver mutation, ATM/G1 pathway defects (alteration in ATM, CHK2, or other components of the pathway causing G1 cell-cycle arrest after DNA damage), SWI/SNF (switch/sucrose nonfermentable, a chromatin-remodeling complex) pathway defect, genomic instability/homologous recombination deficit (HRD), or defect in a gene synthetically lethal with ATRi in published data ([46], [47]) (Figure 1B and Supplemental Table 3). […]
(§1) Criteria for Dose Limiting Toxicity
(§2) 1. Hematological toxicity
(§3) 1. Grade 3 thrombocytopenia with bleeding
(§4) 2. Grade 4 thrombocytopenia
3. Grade 4 neutropenia lasting >7 days in the absence of growth factor […]
and/or systemic infection
(§5) 5. Any other grade ≥4 hematological toxicity
(§6) 2. Cardiovascular toxicity
(§7) 1. Clinically significant hypotension defined as an asymptomatic fall in systolic blood pressure more than 20mmHg to below 70mmHg persisting for at least 10 minutes
(§8) 2. Symptomatic orthostatic fall in systolic blood pressure of more than 20mmHg compared to resting supine blood pressure
(§9) 3. Prolongation of QTc >0.5 seconds (using an appropriate correction […]
(§10) 3. Gastrointestinal/hepatic toxicity
(§11) 1. ALT or AST >5 times ULN; ALP >5 times ULN with elevated gamma- GT
2. ALT or AST >3 times ULN (or ALP >3 times ULN with elevated gamma-GT) with the appearance of symptoms associated with a clinical diagnosis of hepatitis including right upper quadrant pain or tenderness, fever, rash, or eosinophilia (>5%)
3. [ALT or AST >3 times ULN] and [total bilirubin >2 times ULN] or INR >1.5x ULN (unless patient receiving warfarin) (or other evidence of impaired liver synthetic function)
4. Any other grade 3-4 non-hematological toxicity occurring during the time period from the first dose to the end of the first cycle
2. Excluding grade 3 nausea or vomiting if ameliorated by medical management
3. Excluding grade 3 fatigue unless there is an increase by 2 grades from baseline
5. Any dose in cycle 1, or the start of cycle 2, delayed by more than 7 days due to toxicity or patient unable to complete cycle 1 at the planned dose due to toxicity (parts A and B only)
6. Any other toxicity that is greater than baseline, is clinically significant and/or unacceptable, does […]
is considered to be dose-limiting by the investigators.

plasma cytokines = test: Plasma cytokines, Bio-Plex Pro 27-plex; format: in vivo, human; conditions: after 2 weeks of treatment
Method: DNA-Seq of tumor and matched buffy coats was either by whole-exome sequencing or a custom-designed panel targeting all exons of genes of interest for 173 genes, including potential markers of sensitivity to ATRi. ACK-lysed whole blood or PBMCs were stained for flow cytometry using 8 multicolor panels. Plasma cytokines were assessed using the Bio-Plex Pro 27-Plex Panel (Bio-Rad). See Supplemental Methods for full information.
Plasma was taken from EDTA tubes (BD vacutainer) used for buffy coat or immune profiling samples. Plasma was removed, re-spun and aliquoted into 1.5 mL tubes and stored at -70 OC until analysis. Samples were run in duplicate using the Bio-Plex Pro Human Cytokine 27-plex panel (Bio-Rad) as per manufacturer’s instructions.
as §1, §2, §3, §4
3. Grade 4 neutropenia lasting >7 days in the absence of growth factor
4. Grade 4 neutropenia of any duration accompanied by fever ≥ 38.5°C and/or systemic infection
as §5, §6, §7, §8, §9, §10, §11

C[C@@H]1COCCN1c1cc(C2([S@](C)(=N)=O)CC2)nc(-c2cc[nH]c3nccc2-3)n1 [ceralasertib]
p-Rad50 in paired tumor biopsies (phospho-(S635)Rad50): upregulation
Inflammatory response genes (GSEA), on-treatment versus baseline tumor samples (tumor biopsies): enrichment
Number of DLT ([1]; 20 mg BD): 0
Number of DLT ([1]; 40 mg BD): 0
Patients with DLT / number of DLT ([1]; 80 mg BD): 1
Patients with DLT / number of DLT ([1]; 240 mg BD): 3
Recommended phase 2 dose (RP2D) ([1]; BD (twice daily), intermittent: 2 weeks on, 2 weeks off, 4-weekly cycle): 160 mg
Maximum tolerated dose ([1]; BD, continuous dosing, dose escalation): 160 mg
Circulating CCL2 level (plasma cytokines): increase
Circulating CCL4 level (plasma cytokines): decrease
Circulating CCL5 level (plasma cytokines): decrease
